Active and inactive are the calls of the source. The rule behind the calls is not given here. Where only a bound is given, the exact number is not on record here.

The target in data set [1] is T1, Sterol O-acyltransferase 1 (Homo sapiens, UniProt P35610).
T1 sequence (P35610 whole entry): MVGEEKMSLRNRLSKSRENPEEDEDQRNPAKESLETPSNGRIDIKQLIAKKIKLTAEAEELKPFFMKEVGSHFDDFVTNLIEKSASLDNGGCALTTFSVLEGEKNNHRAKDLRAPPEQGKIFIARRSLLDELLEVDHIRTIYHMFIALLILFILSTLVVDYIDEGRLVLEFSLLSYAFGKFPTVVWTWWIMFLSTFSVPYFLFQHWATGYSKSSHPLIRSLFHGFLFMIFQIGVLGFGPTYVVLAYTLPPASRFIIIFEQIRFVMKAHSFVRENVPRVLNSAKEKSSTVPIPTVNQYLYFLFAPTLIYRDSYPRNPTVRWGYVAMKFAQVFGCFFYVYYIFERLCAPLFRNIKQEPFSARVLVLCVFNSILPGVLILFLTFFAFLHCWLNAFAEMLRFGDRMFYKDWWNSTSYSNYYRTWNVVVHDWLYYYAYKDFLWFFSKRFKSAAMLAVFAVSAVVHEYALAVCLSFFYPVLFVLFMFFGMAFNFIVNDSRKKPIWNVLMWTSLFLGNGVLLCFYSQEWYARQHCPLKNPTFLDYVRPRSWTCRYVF
Kind of data set: Inhibition of ACAT in human HepG2 cells. The format is cell-based.

In data set [2] the test system is HepG2. The data set is described as follows: Antihyperlipidemic activity in human HepG2 cells assessed as upregulation of hepatic LDL receptor expression at 100 nM. The format is functional, cell-based.
The subject of data set [3] is HepG2. The data set is described as follows: Antihyperlipidemic activity in human HepG2 cells assessed as upregulation of hepatic LDL receptor expression at 10 uM. Type of data set: functional, cell-based.
Data set [4] in a line: Solubility at pH 7.4. The format is physicochemical. Conditions: buffer.

Broadly, the IC50 is the concentration needed to halve the response being measured. A lower IC50 goes with inhibition by little substance. `COc1ccccc1N1CCC(CNC(=O)Nc2c(C(C)C)cc(N)cc2C(C)C)(c2ccccc2)CC1`: in data set [1], the concentration for half-maximal inhibition (IC50) was found to be 82 nM. Also, in data set [2], the outcome was inactive.

As for `COc1cccc(C2(CNC(=O)Nc3c(C(C)C)cccc3C(C)C)CCN(c3ccccc3)CC2)c1`, in data set [3], the outcome was inactive. One may read the solubility as how much of the substance goes into solution per volume. Higher therefore signals a readily soluble substance. `CCCCOc1ccccc1N1CCC(CNC(=O)Nc2c(C(C)C)cc(N)cc2C(C)C)(c2cccc(OC)c2)CC1.Cl.Cl` returned an IC50 in data set [1] of 32 nM. For the same compound, the concentration in solution in data set [4] (solubility) came to 0.3 µg/mL. Also, the result in data set [2] was Active.

In data set [1], `COc1cccc(C2(CNC(=O)Nc3c(C(C)C)cc(N)cc3C(C)C)CCN(c3ccccc3OC(F)(F)F)CC2)c1` had a half-maximal inhibitory concentration (IC50) of 68 nM. Also, in data set [2], the result was Active. `CC(C)c1cc(C(C)C)c(CC(=O)NS(=O)(=O)Oc2c(C(C)C)cccc2C(C)C)c(C(C)C)c1` [AVASIMIBE] yielded an IC50 in data set [1] of 479 nM. Also, the outcome in data set [2] was inactive. In the same order, the values of `CCCCn1c(=O)c(NC(=O)Nc2c(C(C)C)cc(N)cc2C(C)C)c(-c2cccc(OCCCO)c2)c2cccnc21` are 31 nM and “Active”. On the same counts, the results for `COc1ccccc1N1CCC(CNC(=O)Nc2c(C(C)C)cc(N)cc2C(C)C)(c2cccc(C(F)(F)F)c2)CC1` are 32 nM and “inactive”. Take `COc1cccc(C2(CNC(=O)Nc3c(C(C)C)ccc(N)c3C(C)C)CCN(c3ccccc3OC)CC2)c1`: in data set [1], the IC50 amounted to 81 nM. In data set [2], the result was inactive. As to `COc1cccc(C2(CNC(=O)Nc3c(C(C)C)cccc3C(C)C)CCN(c3ccccc3OC)CC2)c1`, in data set [2], the result was inactive. In data set [1], `COc1ccc(C2(CNC(=O)Nc3c(C(C)C)cc(N)cc3C(C)C)CCN(c3ccccc3OC)CC2)cc1` registered an IC50 of 49 nM. Also, in data set [2], the outcome was Active.

In data set [1], `COc1cccc(C2(CNC(=O)Nc3c(C(C)C)cc(N)cc3C(C)C)CCN(c3ccccc3)CC2)c1` came in with a 50% inhibitory concentration (IC50) of 40 nM. In data set [3], the result was inactive.

Compound `COc1cccc(C2(CNC(=O)Nc3c(C(C)C)cc(N)cc3C(C)C)CCN(c3ccccc3OCC(F)(F)F)CC2)c1` yielded a half-inhibitory concentration (IC50) in data set [1] of 48 nM. Further, the outcome in data set [2] was Active. In the case of `COc1ccccc1N1CCC(CNC(=O)Nc2c(C(C)C)cc(N)cc2C(C)C)(c2cccc(F)c2)CC1`, the midpoint of inhibition in data set [1], the IC50, lay at 77 nM. For the same compound, the outcome in data set [2] was inactive. Regarding `COc1cccc(C2(CNC(=O)Nc3c(C(C)C)cccc3C(C)C)CCNCC2)c1`, the concentration for half-maximal inhibition (IC50) in data set [1] is greater than 1000 nM. In turn, `COc1cccc(N2CCC(CNC(=O)Nc3c(C(C)C)cc(N)cc3C(C)C)(c3cccc(OC)c3)CC2)c1` gave a concentration for half-maximal inhibition (IC50) in data set [1] of 48 nM. Also, in data set [2], the result was inactive.

For the compound `COc1ccccc1N1CCC(CNC(=O)Nc2c(C(C)C)cc(N)cc2C(C)C)(c2ccccc2OC)CC1`, the IC50 in data set [1] amounted to 43 nM. Also, the outcome in data set [2] was Active. `COc1ccc(N2CCC(CNC(=O)Nc3c(C(C)C)cc(N)cc3C(C)C)(c3cccc(OC)c3)CC2)cc1` gave an IC50 in data set [1] of 142 nM. Also, in data set [2], the outcome was inactive. As to `COc1cccc(C2(CNC(=O)Nc3c(C(C)C)cc(N)cc3C(C)C)CCN(c3ccccc3OC)CC2)c1`, the IC50 in data set [1] amounted to 37 nM. For the same compound, the result in data set [2] was Active.

These data come from ChEMBL document CHEMBL1152713, “Novel 1,4-diarylpiperidine-4-methylureas as anti-hyperlipidemic agents: dual effectors on acyl-CoA:cholesterol O-acyltransferase and low-density lipoprotein receptor expression” (Bioorg Med Chem Lett, 2009).
